Data published in patent US5977144A (priority 1997, dated 1999).
Entries after “also recorded” stand apart in the source; their conditions may differ. Where two headings read alike, the source gives them in different places.

Key:
[1] = system: cholinesterase-staining cells in the nucleus basalis; settings: rat, in vivo
Protocol: Passive avoidance behavior was measured in nucleus basalis lesioned rats after intraperitoneal (IP) injections of drugs (base weight) or 0.9% saline diluent. For lesions, male 5 month old Sprague Dawley rats were anesthetized with 30 mg/kg sodium pentobarbital (IP) and then infused bilaterally with 1 μl of 5 μg/μl ibotenic acid in phosphate buffered saline, pH 7.4, into the nucleus basalis as described previously (17). Infusion coordinates were anterior 7.0 mm, lateral 2.6 mm and vertical 6.5 mm according to Paxinos and Watson (Paxinos and Watson, 1986).
Histological assessments of the ibotenic acid placements in the nucleus basalis were made after behavioral measurements, using cholinesterase staining in formalin-fixed tissues.

[2] = system: alpha7 nicotinic receptors
rat alpha7 receptor [3] = target: T1, rat alpha7 receptor (Rattus norvegicus, UniProt Q05941); settings: cited from earlier work
rat alpha7 receptor [4] = target: T1, rat alpha7 receptor; settings: literature; cited from earlier work
[5] = system: animal models of learning and memory; settings: animals; cited from earlier work
[6] = target: alpha7 receptor (high affinity alpha-bungarotoxin binding, rat brain membranes) (Rattus norvegicus, UniProt Q05941); assay: biochemical; settings: for IC50: rat brain membranes, read-out: IC50, [125I]α-bungarotoxin binding
[7] = target: T2, alpha4beta2 receptor (cytisine binding, rat brain membranes) (Rattus norvegicus, UniProt P09483+P12390); assay: biochemical; settings: 1 μM (Table 2); read-out: alpha4beta2 binding: % inhibition of cytistine binding
T2 construct: from tissue; host or cells: rat brain membranes
Source text: Further, the cinnamylidene-anabaseines displaced high affinity cytisine binding to rat brain membranes with lower affinity than other types of benzylidene-anabaseines. These observations are consistent with the cinnamylidene-anabaseines having some selectivity for alpha7 receptor subtypes over other types of nicotinic receptors, especially alpha4beta2 receptors, based on the types of receptors to which alpha-bungarotoxin and cytisine bind to in brain.

rat alpha7 receptor [8] = target: T1, rat alpha7 receptor; assay: cell-based; settings: for α7 receptor activation (in words): oocyte expression system; for EC50: oocytes, read-out: α7 EC50
Protocol: FIG. 13A. Effects of chronic injections of DMXB or nicotine on high affinity [^3 H]ACh or [^125 I]α-bungarotoxin (BTX) binding in rat neocortices. Adult male rats were injected with saline vehicle, 1 mg/kg DMXB or 0.2 mg/kg nicotine (NIC) (IP) daily for 2 weeks. At that time, neocortices were removed and assayed for high affinity [^3 H]ACh or [^125 I]α-bungarotoxin binding as described in the text. […] Responses of rat α7 ACHR to 3-CA, 2-MeOCA and 4-MeOCA. Concentration-response relationships for the peak agonist activated currents of oocytes injected with RNA coding for the rat α7 subunit. All responses were initially measured relative to the individual oocyte-response to 500 μM ACh, applied 5 min prior to drug-application. Responses were normalized relative to the maximum response obtainable with ACh so that a response of 1 represents full efficacy. The ratio of 500 μM ACh control response to ACh maximum was taken from Papke et al., 1997.
(§1) Oocytes were prepared and recordings made as described previously (de Fiebre, et al., 1995). Frogs were anesthetized by submersion in 0.1% (3)-aminobenzoic acid ethyl ester and several lobes of the ovary surgically removed through a small incision in the abdomen wall. Oocytes were freed from the follicle cells by treatment with collagenase (in calcium-free Barth's solution: 88 mM NaCl, 1 mM KCl, 15 mM Hepes pH 7.6, 0.33 mM MgSO4, 0.1 mg/ml gentamicin sulfate) for 2 hr at room temperature and Stage 5 oocytes were isolated. Oocytes were rinsed and stored at 18° C. in Barth's saline (88 mM NaCl, 1 mM KCl, 15 mM Hepes pH 7.6, 0.3 mM Ca(NO3)2, 0.41 mM CaCl2, 0.82 mM MgSO4, 0.1 mg/ml gentamicin sulfate) before and after microinjection with RNA. Microinjection was conducted with a Drummond Scientific "Nanoject Variable" automatic injector. Oocytes were injected with a 50 nl solution of specified rat nicotinic subunit mRNA species (2-10 mg/ml; derived from the cDNA containing HIP 306 plasmid kindly provided by Dr. Jim Boulter, Salk Institute) and incubated 2-7 days at 18° C. before electrophysiological recording. electrophysiological recordings, oocytes were perfused in a Warner Instruments RC-8 recording chamber with a perfusion solution containing 115 mM NaCl, 2.5 mM KCl, 10 mM Hepes pH 7.2, 1.8 mM CaCl2 and 1 μM atropine to block muscarinic responses. Perfusion was continuous at a rate of 10 ml/min. Drags were diluted in perfusion solution and applied using a solenoid valve to switch from perfusion to drug solutions. Current responses to drug administration were studied under two electrode voltage clamp at a holding potential of -70 mV using a Dagan Corp. TEV-200 voltage clamp connected to a 386-SX IBM computer using a TL-1 DMA interface (Axon Instruments). Micropipettes were filled with 3 M KCl and had resistances of 0.5-2 MOhms. Drug responses are analyzed with PClamp software (Axon Instruments). Oocytes with resting potentials of less than -30 mV were rejected.

rat alpha4beta2 receptor [9] = target: T3, rat alpha4beta2 receptor (Rattus norvegicus, UniProt P09483+P12390); assay: Activation of alpha4beta2 receptors expressed in Xenopus oocytes; assay type: cell-based; settings: Table 4; read-out: Oocytes Agonist α4
Protocol: FIG. 14A. Responses of α4β2 ACHR to 3-CA, 2-MeOCA or 4-MeOCA. Concentration-response relationships for the peak agonist activated currents of oocytes injected with RNA coding for rat α4β2 subunits. Responses are first expressed relative to the response to 10 μM ACh, applied 5 min before drug-application, then normalized to the maximum response obtainable with ACh so that a response of 1 represents full efficacy. The ratio between 10 μM ACh and maximum ACh response was determined in separate experiments.
as §1

rat alpha7 receptor [10] = target: T1, rat alpha7 receptor; assay: cell-based; design: Oocytes Antagonist: unit not given here; settings: for IC50: ACh applied 5 min after compound, read-out: IC50, antagonism subsequent to agonist activity; for Oocytes Antagonist: Table 4; for alpha 7 antagonism: % of antagonism of acetylcholine administered after drug: xenopus oocytes
Protocol: FIG. 13B. Effects of chronic injections of DMXB or nicotine on high affinity [^3 H]ACh or [^125 I]α-bungarotoxin (BTX) binding in rat neocortices. Adult male rats were injected with saline vehicle, 1 mg/kg DMXB or 0.2 mg/kg nicotine (NIC) (IP) daily for 2 weeks. At that time, neocortices were removed and assayed for high affinity [^3 H]ACh or [^125 I]α-bungarotoxin binding as described in the text. […] Responses of rat α7 AChR to 3-CA, 2-MeOCA and 4-MeOCA. […] All responses are expressed relative to the oocyte-response to 500 μM ACh applied 5 min prior to the experimental agonist application.
as §1
(§2) Antagonist properties subsequent to agonist activity were measured as a decrease in responsiveness to ACh applied 5 min after compound-application, normalized to ACh application instead of the anabaseine-derivative (FIG. 13A AND FIG. 13B).

rat alpha4beta2 receptor [11] = target: T3, rat alpha4beta2 receptor; assay: Antagonism of alpha4beta2 receptors in oocytes (residual inhibition of ACh response after drug); assay type: cell-based; settings: xenopus oocytes
Protocol: as §1, with “Micropipettes were filled with 3 M KCl and had resistances of 0.5-2 MOhms.” left out, “Oocytes with resting potentials of less than -30 mV were rejected.” left out
as §2

PC12 cells [12] = assay type: cell-based; settings: for neurite protection during NGF-deprivation (in words): 10 μM; for Neurite Counts: 10 μM (NGF 100 ng/ml), 4 days after removal of serum and NGF, mean±SEM, * p<0.05
Protocol: PC12 cell-culture methods were modified from Greene and Tischler (1976). Cells were plated at 30-40% confluence and grown in Dulbecco's Modified Eagle Medium containing 10% heat-inactivated horse serum, 5% fetal bovine serum, 100 units/ml penicillin, 100 μg/ml streptomycin and 0.5 mM 1-glutamine. Cultures were maintained at 37° C., […] /6% CO2 and 90-92% humidity in culture plates pre-coated with poly-1lysine (10 g/L). Cultures were maintained for 7 days in serum-supplemented medium to which 100 ng/ml rat 2.5S NGF was added at day 1. On day 7, conditioned medium was replaced serum-free medium containing specified drugs. Four days later, cell density was estimated using the NIH Image program version 1.47 and number of neurite-expressing cells counted manually in blind fashion as described previously (Martin et al., 1994). A Nikon inverted microscope (100× magnification) was attached to a Mac II computer via a monochrome video camera (Cohu, Inc., San Diego, Calif.). Four random areas were counted per plate and there were 4 plates per treatment group, unless otherwise indicated. Neurites were defined as processes at least 2× the length of the perikaryon. To assess the reliability of the image analyses, a reticle was used for direct quantification of cells in the same view as the one analyzed in random samples.
PC12 cells were differentiated for 1 week with NGF. Drugs were administered for the 4 day interval after removal of serum and NGF. Neuites were counted and expressed as the mean±SEM of at least 3 plates/group.

rat alpha4beta2 receptor [13] = target: T3, rat alpha4beta2 receptor; assay: Activation of alpha4beta2 receptors expressed in Xenopus oocytes; assay type: cell-based; settings: read-out: alpha4beta2 activation: % response observed with 10 μM acetylcholine
PC12 cells [14] = assay type: cell-based; settings: Table 4
[15] = 1 μM (Table 2), read-out: alpha7 binding: % inhibition of alphabungarotoxin binding
[16] = Table 4, read-out: Receptor Binding α7
[17] = Table 4, read-out: Oocytes Agonist α7
[18] = read-out: alpha7 activation: % response observed with 500 μM acetylcholine

T3 sequence (P09483 31-630): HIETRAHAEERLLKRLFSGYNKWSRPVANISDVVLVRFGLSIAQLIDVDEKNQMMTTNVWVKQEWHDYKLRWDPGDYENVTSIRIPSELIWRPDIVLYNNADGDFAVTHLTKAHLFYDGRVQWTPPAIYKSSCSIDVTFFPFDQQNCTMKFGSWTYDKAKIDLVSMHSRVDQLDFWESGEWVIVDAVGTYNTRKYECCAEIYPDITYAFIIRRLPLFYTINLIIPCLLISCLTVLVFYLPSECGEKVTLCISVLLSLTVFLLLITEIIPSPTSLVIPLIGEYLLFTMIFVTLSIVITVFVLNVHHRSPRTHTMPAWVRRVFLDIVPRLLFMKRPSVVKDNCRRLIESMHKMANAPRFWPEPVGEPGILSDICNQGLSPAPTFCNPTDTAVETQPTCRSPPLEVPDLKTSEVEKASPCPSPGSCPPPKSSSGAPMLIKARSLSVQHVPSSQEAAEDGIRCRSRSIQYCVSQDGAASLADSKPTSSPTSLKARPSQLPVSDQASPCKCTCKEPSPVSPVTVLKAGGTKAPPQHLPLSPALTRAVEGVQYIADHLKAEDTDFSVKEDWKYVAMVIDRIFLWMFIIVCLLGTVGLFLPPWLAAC
T3 sequence (P12390 25-500): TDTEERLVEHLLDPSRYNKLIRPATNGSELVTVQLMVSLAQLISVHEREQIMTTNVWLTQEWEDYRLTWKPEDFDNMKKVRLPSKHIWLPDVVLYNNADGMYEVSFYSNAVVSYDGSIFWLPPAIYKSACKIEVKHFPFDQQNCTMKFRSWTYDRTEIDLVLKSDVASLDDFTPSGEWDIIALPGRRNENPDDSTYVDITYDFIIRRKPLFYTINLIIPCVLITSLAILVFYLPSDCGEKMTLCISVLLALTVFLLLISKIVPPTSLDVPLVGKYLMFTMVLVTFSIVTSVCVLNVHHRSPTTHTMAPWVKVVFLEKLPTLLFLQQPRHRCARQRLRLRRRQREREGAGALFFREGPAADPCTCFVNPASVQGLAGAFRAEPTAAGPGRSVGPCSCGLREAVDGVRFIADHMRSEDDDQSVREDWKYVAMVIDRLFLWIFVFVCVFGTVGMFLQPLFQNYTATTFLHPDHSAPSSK
T1 sequence (Q05941 23-502): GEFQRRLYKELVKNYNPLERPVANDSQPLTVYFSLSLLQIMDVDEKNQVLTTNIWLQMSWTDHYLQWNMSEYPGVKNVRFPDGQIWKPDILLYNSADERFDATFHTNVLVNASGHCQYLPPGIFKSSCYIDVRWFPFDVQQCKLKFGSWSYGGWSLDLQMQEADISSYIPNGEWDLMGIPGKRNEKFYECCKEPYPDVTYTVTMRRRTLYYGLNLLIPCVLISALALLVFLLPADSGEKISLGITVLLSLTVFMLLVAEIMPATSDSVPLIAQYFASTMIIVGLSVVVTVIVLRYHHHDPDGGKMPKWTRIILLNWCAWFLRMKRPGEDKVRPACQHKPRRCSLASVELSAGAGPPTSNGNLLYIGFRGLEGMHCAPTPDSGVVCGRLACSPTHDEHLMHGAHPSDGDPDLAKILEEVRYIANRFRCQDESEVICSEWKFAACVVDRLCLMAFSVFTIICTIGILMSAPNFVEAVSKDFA
alpha7 receptor (high affinity alpha-bungarotoxin binding, rat brain membranes), sequence (Q05941 23-502): as above
T2 sequence (P09483 31-630): as the sequence (P09483 31-630) above
T2 sequence (P12390 25-500): as the sequence (P12390 25-500) above

Compound | inhibition at 1 µM [6, 15] | inhibition at 1 µM [6, 16] | IC50 [6] | inhibition at 1 µM [7] | selectivity α7 over α4β2 (in words) (rat alpha7 receptor [8]) | Emax (rat alpha7 receptor [8]; [17]) | α7 receptor activation (in words) (rat alpha7 receptor [8]) | EC50 (rat alpha7 receptor [8]) | Emax (rat alpha7 receptor [8]; [18]) | Emax (rat alpha4beta2 receptor [9]) | IC50 (rat alpha7 receptor [10]) | Oocytes Antagonist (rat alpha7 receptor [10]) | alpha 7 antagonism: % of antagonism of acetylcholine administered after drug (rat alpha7 receptor [10]) | alpha4beta2 antagonism: % of antagonism of acetylcholine administered after drug (rat alpha4beta2 receptor [11]) | neurite protection during NGF-deprivation (in words) (PC12 cells [12]) | Neurite Counts (PC12 cells [12]) | Emax (rat alpha4beta2 receptor [13]) | other results
N[C@H](C(=O)O)c1cc(=O)[nH]o1 [ibotenic acid] |  |  |  |  |  |  |  |  |  |  |  |  |  |  |  |  |  | reduction of cholinesterase-staining cells in nucleus basalis [1]: over 80%
CCO [ethanol] |  |  |  |  |  |  |  |  |  |  |  |  |  |  |  |  |  | antagonism of nicotinic receptors by ethanol (in words) [2]: alpha7 nicotinic receptors were sensitive to antagonism by ethanol while other receptor types were not affected
CN(C)c1ccc(/C=C/C=C2\CCCN=C2c2cccnc2)cc1 [DMAC, E,E-3-(4-dimethylaminocinnamylidene) anabaseine] |  |  |  |  |  |  |  |  |  |  |  |  |  |  |  |  |  | α7 agonist activity (in words) (rat alpha7 receptor [3]; background/literature): fully efficacious and potent α7 agonist; selectivity α7 over α4β2 / other nicotinic subtypes (in words) (rat alpha7 receptor [3]; literature): selectively activate α7 receptors over α4β2; long term inhibition / antagonism of α7 receptors (in words) (rat alpha7 receptor [4]): long term inhibition of α7 receptors following activation; also recorded: potent antagonist activity; memory-related performance (in words) [5]: memory-enhancing activity in rodents; also recorded: effective in this behavioral paradigm
C(=C\c1ccccc1)/C=C1\CCCN=C1c1cccnc1 [3-CA, E,E-3-(Cinnamylidene)anabaseine] | 94.7% | 94.7% | 0.08 µM | 6.2% | selectively activate α7 receptors over α4β2 | 92% | fully efficaciously | 3.2 ± 0.7 µM | 92% | 2.6% | 15 ± 6 µM | .50 | 45 | 10 | neuroprotective against neurite-loss during NGF-deprivation; also recorded: protected against NGF-deprivation neurite loss; also recorded: exhibited cytoprotective activity; also recorded: effective | 185 ± 19 | < 3% | inhibition of α7 receptors, estimated (rat alpha7 receptor [10]; 10 μM, estimated from oocyte results): less than 20%; inhibition at 10 µM (rat alpha7 receptor [10]; 10 μM, ACh application 5 min later, read-out: long term inhibition of α7 receptors): < 20%; PC12 Cyto. (PC12 cells [14]): +?
COc1ccc(/C=C/C=C2\CCCN=C2c2cccnc2)cc1 [4-MeOCA, E,E-3-(4-Methoxycinnamylidene)anabaseine] | 94.1% | 94.1% | 0.054 µM | 32% | selectively activate α7 receptors over α4β2 | 45% | fully efficaciously | 15.9 ± 7.9 µM | 45% | < 5% | 5 ± 2.3 µM | .104 | 75 | 34 | Neither 2-MeOCA nor 4-MeOCA elicited neurite-protection | 155 ± 23 | < 2% | times less potent (α7 activation) (rat alpha7 receptor [8]): 2-3 times
